This is an account of results in PMC11899342, “Novel Triazeneindole Antibiotics: Synthesis and Hit-to-Lead Optimization” (International Journal of Molecular Sciences, 2025).

Converted amounts (≈) assume the structure as drawn. Like-named read-outs stand apart in the source and are kept apart here.

One may read the IC50 as the midpoint of a concentration-inhibition curve. Low readings indicate inhibition by little substance, high ones a need for much substance.

One data set has as its system Caco-2 cells. The experiment in a line: Caco-2 cell monolayer permeability. The data set is classed as in vitro ADME, human. On the procedure: The MultiScreen Caco-2 (ATCC cat. # HTB-37) test system (Millipore, St. Charles, MO, USA) was used to study the transport through a cell monolayer, according to the manufacturer’s instructions. Briefly, a study of transport from the apical membrane to the basolateral (A-B) area and in the opposite direction (B-A) was carried out on a 21-day culture of Caco-2 at a 1 µM concentration of the tested compound for 2 h. Monolayer integrity was verified by measuring electrical resistance (TEER) using a Millicell-ERS instrument. A TEER value of at least 3 KOhm/well was determined to be acceptable.
For orientation: Passage across Caco-2 layers is used to estimate intestinal permeability.

A further data set relates to MRSA clinical isolates. As to the kind of experiment: MIC by broth microdilution against multidrug-resistant MRSA clinical isolates. The data set is classed as cell-based, Staphylococcus aureus. The following applies: 8 multidrug-resistant MRSA clinical isolates; tested 0.125-1 mg/L. The procedure:
Clinical MRSA isolates with multidrug resistance were obtained from the collection of the Research Institute of Antimicrobial Chemotherapy, Smolensk State Medical Academy.
The MICs were determined using a broth microdilution method according to [42]. Briefly, serial dilutions of the tested compounds in 50 µL of Mueller Hinton broth (BD) were prepared in 96-well microplates. The antibiotics vancomycin and linezolid (Sigma-Aldrich, St. Louis, MO, USA) were used as a positive control. Bacterial suspensions of the tested MRSA strains were prepared in the Mueller Hinton broth (BD) with a concentration 1 × 10^6 CFU/mL, and then 50 µL aliquots were added to the prepared microplates. The final concentrations of the antibiotics in the wells were 1, 0.5, 0.25, and 0.125 mg/L, for the tested compounds, and 2 mg/L for vancomycin and linezolid. Negative control (lack of bacterial cells) and growth control (lack of compound) wells were included in all plates. The microplates were incubated at 37 °C for 18 h. The growth was assessed visually after incubation, and the MIC was assumed as the lowest compound concentration at which a noticeable growth of the microorganisms was inhibited (no visible growth). All experiments were conducted in triplicate.
Background: In broth dilution the organism is exposed to a series of concentrations in liquid medium.

Data set [1] has as its system human embryonic fibroblasts (HEFs). The experiment in a line: MTT cytotoxicity on human embryonic fibroblasts. The data set is classed as cell-based. The note with it: Homo sapiens, Fibroblast, 24 h, ND = non-toxic in tested concentrations (up to 50 mg/L). The procedure:
The primary screening of 22 substances was performed on human embryonic fibroblasts (HEFs). […] The HepG2 cell line was obtained from the American Type Culture Collection (ATCC cat. # HB-8065). The primary HEF cells (normal human embryonic fibroblasts) were derived from human embryonic stem cells. The cells were cultured in DMEM/F12 (1:1) medium containing 10% fetal bovine serum (Invitrogen, Carlsbad, CA, USA) at 37 °C and 5% CO2, according to standard mammalian tissue culture protocols and sterile technique. […] The incubation time with the substance was 24 h for all substances and cell lines. Cell detachment by trypsin, centrifugation, and counting in a hemocytometer were performed 16 h before the addition of the substance. For correct counting of the HepG2 cells, the cell suspension was passed through a syringe needle to get rid of cell aggregates. The cells were placed in the wells of a 96-well plate. The number of cells was selected according to the properties of the cell line and the final optical density in the experiment. Fibroblasts and hepatocytes were used in the amount of 10 thousand cells per well in 100 μL of DMEM/F12 medium supplemented with 10% fetal bovine serum. The substances were added to 100 µL of medium in the wells so that the final concentrations were 50, 25, 12.5, 6.25, 3.125, and 1.62 mg/L. The final well volume was 200 µL. The medium containing fetal bovine serum, without added substances, was used as a negative control. After 24 h, excessive amounts of medium were discarded. A total of 30 µL of MTT solution (5 mg/mL in PBS) was added to each well. After the precipitation of formazan crystals (3 h incubation), they were dissolved using 100 μL of dimethyl sulfoxide. The optical density (OD) was measured at 570 nm using a microplate reader (Eppendorf). For every condition, the cell viabilities were assessed in at least three independent experiments for every cell culture. Cell survival was calculated using the following formula:(OD of treated cells − OD blank)/(OD of control cells − OD blank) × 100%, where OD blank represents the OD values in wells without cells but with the addition of the MTT and DMSO solutions. The results were presented in the form of cytotoxicity curves, and the graphs were also plotted in a Microsoft Excel program; the calculation of the IC50 half-maximal inhibition concentration values was performed in a GraphPad Prism 6.0 (GraphPad Software Inc., San Diego, CA, USA) program, based on the equations of the cytotoxicity curves.

A short description of data set [2]: Solubility in water by HPLC. The data set is classed as physicochemical. The following applies: water, kinetic from dmso stock. The procedure: The solubility of the compounds in water was assessed using HPLC analysis. Two 1.0 mg portions of the test compounds were dissolved in 10 μL of dimethyl sulfoxide; 1.0 mL of acetonitrile was added to one sample (standard), and 1.0 mL of water was added to the second sample (tested sample). Both vials were mixed in a shaker for 5 min, then centrifuged at 10,000 rpm for 5 min. The supernatants were collected and analyzed using Agilent 1290 Infinity (Agilent Technologies, Santa Clara, CA, USA) with a YMC-Triart C18 50 × 2.0 mm, 1.9 μm column. The concentration of the test compound in water was determined by comparing the peak areas of the standard (concentration 1.0 mg/mL) and the tested sample.

Setting [3] is: Caco-2, first value: A-B / apical.
Where [4] appears, read: read-out: Solubility in water, mass concentration.
The mark [5] stands for this setting: read-out: Solubility in water, molar concentration.

rhodamine came in with an Asymmetry index in the data set with Caco-2 cells (Caco-2) of 3.20. In the data set with Caco-2 cells (Caco-2, 1 µM, 2 h), the “Papp A-B” value is 1.14 10^-6 sm/s and the “Papp B-A” value is on record as 3.65 10^-6 sm/s. Moreover, the Mass balance in the data set with Caco-2 cells (setting [3]) stood at 92.1%. In addition, the Mass balance in the data set on Caco-2 cells (Caco-2, second value: B-A / basolateral) stood at 95.8%.

For the compound `CCOC(=O)c1[nH]c2ccccc2c1/N=N/N1CCCN(C)CC1` [BX-SI005, Ethyl (E)-3-((4-methyl-1,4-diazepan-1-yl)diazenyl)-1H-indole-2-carboxylate], the “MIC Range Against 8 MRSA Strains” value in the data set with MRSA clinical isolates worked out at 1 µg/mL (≈ 3.04 µM). The compound further yielded an IC50 in data set [1] of 12 µg/mL (≈ 36.4 µM). The solubility at 5 min in data set [2] (setting [4]) is 70.2 µg/mL; in data set [2] (setting [5]), 210 µM.

For the compound `CCOC(=O)c1[nH]c2ccccc2c1/N=N/N1CCC(C)CC1` [BX-SI055, Ethyl (E)-3-((4-methylpiperidin-1-yl)diazenyl)-1H-indole-2-carboxylate], in the data set with MRSA clinical isolates, the “MIC Range Against 8 MRSA Strains” value is above 1 µg/mL. In data set [1], this compound showed an IC50 of 16 µg/mL (≈ 50.9 µM). Besides, the solubility at 5 min in data set [2] (setting [4]) was 1.22 µg/mL; in data set [2] (setting [5]), 4 µM.

`CCOC(=O)c1[nH]c2ccccc2c1/N=N/N(C)Cc1ccccc1` [BX-SI003, Ethyl (E)-3-(3-benzyl-3-methyltriaz-1-en-1-yl)-1H-indole-2-carboxylate]: the “MIC Range Against 8 MRSA Strains” value in the data set with MRSA clinical isolates was 1 µg/mL (≈ 2.97 µM). The same compound showed an IC50 in data set [1] of 3 µg/mL (≈ 8.92 µM). Besides, the solubility at 5 min turned out to be 29.6 µg/mL in data set [2] (setting [4]) and 90 µM in data set [2] (setting [5]).

Turning to `CC(C)NCC(O)COc1cccc2ccccc12` (stereo not drawn) [Propranolol, propranolol], the “Papp A-B” value in the data set on Caco-2 cells (Caco-2, 1 µM, 2 h) was 44.6 10^-6 sm/s. In addition, the Mass balance in the data set with Caco-2 cells (setting [3]) worked out at 91.7%.

As to `CCOC(=O)c1[nH]c2ccccc2c1/N=N/N(C)CCN(C)C` [BX-SI010, Ethyl (E)-3-(3-(2-(dimethylamino)ethyl)-3-methyltriaz-1-en-1-yl)-1H-indole-2-carboxylate], the “MIC Range Against 8 MRSA Strains” value in the data set with MRSA clinical isolates is 1 µg/mL (≈ 3.15 µM). In data set [1], this compound yielded an IC50 of 19 µg/mL (≈ 59.9 µM). For the same compound, the solubility at 5 min in data set [2] (setting [4]) is 475 µg/mL; in data set [2] (setting [5]), 1490 µM.

In the case of `CCOC(=O)c1[nH]c2cc(F)ccc2c1/N=N/N1CCOCC1` [BX-SI040, Ethyl (E)-6-fluoro-3-(morpholinodiazenyl)-1H-indole-2-carboxylate], the “MIC Range Against 8 MRSA Strains” value in the data set on MRSA clinical isolates came out at 1 µg/mL (≈ 3.12 µM). The same compound came in with an IC50 in data set [1] of 12 µg/mL (≈ 37.5 µM). The solubility at 5 min was determined as 4.48 µg/mL in data set [2] (setting [4]) and 14 µM in data set [2] (setting [5]).

Turning to `CNC(=C[N+](=O)[O-])NCCSCc1ccc(CN(C)C)o1` [Ranitidine, ranitidine], the “Papp A-B” value with Caco-2 cells (Caco-2, 1 µM, 2 h) is on record as 1.48 10^-6 sm/s. The compound also had a Mass balance in the data set on Caco-2 cells (setting [3]) of 96%.

For `CCOC(=O)c1[nH]c2ncccc2c1/N=N/N1CCC(C)CC1` [BX-SI058, Ethyl (E)-3-((4-methylpiperidin-1-yl)diazenyl)-1H-pyrrolo[2,3-b]pyridine-2-carboxylate], the “MIC Range Against 8 MRSA Strains” value with MRSA clinical isolates amounted to 1 µg/mL (≈ 3.17 µM). For the same compound, the IC50 in data set [1] was determined as 12 µg/mL (≈ 38 µM). In addition, the solubility at 5 min was found to be 0.399 µg/mL in data set [2] (setting [4]) and 1 µM in data set [2] (setting [5]).

In the case of `CCOC(=O)c1[nH]c2ccccc2c1/N=N/N1CCC(CCOC)CC1` [BX-SI016, Ethyl (E)-3-((4-(2-methoxyethyl)piperidin-1-yl)diazenyl)-1H-indole-2-carboxylate], the “MIC Range Against 8 MRSA Strains” value against MRSA clinical isolates is above 1 µg/mL. The compound further returned an IC50 in data set [1] of 34 µg/mL (≈ 94.9 µM).

Consider `CCOC(=O)c1[nH]c2ncccc2c1/N=N/N1CCN(C)CC1` [BX-SI057, Ethyl (E)-3-((4-methylpiperazin-1-yl)diazenyl)-1H-pyrrolo[2,3-b]pyridine-2-carboxylate], for which, in the data set on MRSA clinical isolates, the “MIC Range Against 8 MRSA Strains” value fell in the range of 0.5 to 1 µg/mL. The compound further gave an IC50 in data set [1] of 3 µg/mL (≈ 9.48 µM). Besides, the solubility at 5 min in data set [2] (setting [4]) worked out at 16.7 µg/mL; in data set [2] (setting [5]), 53 µM.
